Common to all, as to type: functional
The test system of experiment [1] is Escherichia coli. As to the kind of experiment: Antibacterial activity against Escherichia coli food isolate after 24 hrs by broth microdilution method.
In the next experiment the test system is Bacillus subtilis. As to the kind of experiment: Antibacterial activity against Bacillus subtilis ATCC 6633 after 24 hrs by broth microdilution method. The settings on record: ATCC 6633, 24 h. For orientation: Dilution methods test growth across graded concentrations, often in twofold steps.
In the next experiment the test system is Penicillium chrysogenum. As to the kind of experiment: Antifungal activity against Penicillium chrysogenum isolates after 48 hrs by broth microdilution method.
A further experiment concerns Candida albicans. As to the kind of experiment: Antifungal activity against Candida albicans ATCC 10231 after 48 hrs by broth microdilution method.
Experiment [2] relates to Escherichia coli. As to the kind of experiment: Antibacterial activity against Escherichia coli clinical isolate after 24 hrs by broth microdilution method.
Another experiment deals with Aspergillus fumigatus. As to the kind of experiment: Antifungal activity against Aspergillus fumigatus isolates after 48 hrs by broth microdilution method.
The subject of experiment [3] is Staphylococcus aureus. As to the kind of experiment: Antibacterial activity against Staphylococcus aureus food isolate after 24 hrs by broth microdilution method.
Experiment [4] deals with Staphylococcus aureus. Briefly: Antibacterial activity against Staphylococcus aureus ATCC 6538 after 24 hrs by broth microdilution method. The settings on record: ATCC 6538, 24 h.
Experiment [5] has as its system Escherichia coli. Briefly: Antibacterial activity against Escherichia coli ATCC 25922 after 24 hrs by broth microdilution method. The settings on record: ATCC 25922, 24 h.
In experiment [6] the test system is Staphylococcus aureus. Briefly: Antibacterial activity against Staphylococcus aureus ATCC 25923 after 24 hrs by broth microdilution method. The note with it: ATCC 25923, 24 h.
The next experiment deals with Acremonium chrysogenum. Briefly: Antifungal activity against Acremonium chrysogenum isolates after 48 hrs by broth microdilution method. The note with it: Hapsidospora chrysogena.
A further experiment deals with Proteus vulgaris. As to the kind of experiment: Antibacterial activity against Proteus vulgaris ATCC 8427 after 24 hrs by broth microdilution method. The settings on record: ATCC 8427, 24 h.
The next experiment relates to Trueperella pyogenes. Briefly: Antibacterial activity against Corynebacterium pyogenes ATCC 19411 after 24 hrs by broth microdilution method. The settings on record: ATCC 19411, 24 h.
Another experiment concerns Salmonella enterica. As to the kind of experiment: Antibacterial activity against Salmonella enterica ATCC 13076 after 24 hrs by broth microdilution method. The note with it: ATCC 13076, 24 h.
For the next experiment, the system named is Aspergillus restrictus. Briefly: Antifungal activity against Aspergillus restrictus isolates after 48 hrs by broth microdilution method.
The next experiment relates to Micrococcus luteus. As to the kind of experiment: Antibacterial activity against Sarcina lutea food isolate after 24 hrs by broth microdilution method.
The test system of a further experiment is Bacillus cereus. Briefly: Antibacterial activity against Bacillus cereus food isolate after 24 hrs by broth microdilution method.
The subject of experiment [7] is Klebsiella pneumoniae. As to the kind of experiment: Antibacterial activity against Klebsiella pneumoniae clinical isolate after 24 hrs by broth microdilution method.
Experiment [8] has as its system Klebsiella pneumoniae. As to the kind of experiment: Antibacterial activity against Klebsiella pneumoniae ATCC 10031 after 24 hrs by broth microdilution method. The note with it: ATCC 10031, 24 h.
The test system of another experiment is Pseudomonas aeruginosa. As to the kind of experiment: Antibacterial activity against Pseudomonas aeruginosa ATCC 9027 after 24 hrs by broth microdilution method. The note with it: ATCC 9027, 24 h.
The subject of the next experiment is Saccharomyces cerevisiae. As to the kind of experiment: Antifungal activity against Saccharomyces cerevisiae ATCC 9763 after 48 hrs by broth microdilution method.

≈ marks a conversion by molar mass, not a printed value.

On to `COC(=O)[C@]1(C)CC[C@H](OC(C)=O)[C@]2(C)c3c(O)cc(C(C)C)cc3[C@H](O)[C@@H](OC(C)=O)[C@H]21` [EUROABIENOL], for which the MBC (usually the lowest tested concentration that kills the bacteria rather than only halting them) in the experiment with Escherichia coli [1] turned out to be 5740 µg/mL (≈ 12400 µM); in the experiment on Bacillus subtilis, 2870 µg/mL (≈ 6200 µM); in the experiment with Escherichia coli [2] it was 716 µg/mL (≈ 1550 µM); with Staphylococcus aureus [3], 716 µg/mL (≈ 1550 µM); against Staphylococcus aureus [4] it was 2870 µg/mL (≈ 6200 µM); with Escherichia coli [5], 2870 µg/mL (≈ 6200 µM). The MBC against Staphylococcus aureus [6] is 5740 µg/mL (≈ 12400 µM); against Proteus vulgaris, 5740 µg/mL (≈ 12400 µM); in the experiment on Trueperella pyogenes it was 1430 µg/mL (≈ 3100 µM); in the experiment with Salmonella enterica, 1430 µg/mL (≈ 3100 µM); in the experiment on Micrococcus luteus it was 179 µg/mL (≈ 387 µM); against Bacillus cereus it was 716 µg/mL (≈ 1550 µM). Further, the MBC with Klebsiella pneumoniae [7] amounted to 716 µg/mL (≈ 1550 µM); against Klebsiella pneumoniae [8], 1430 µg/mL (≈ 3100 µM); against Pseudomonas aeruginosa, 2870 µg/mL (≈ 6200 µM). In addition, the MIC (as a rule, the smallest concentration in the dilution series that meets the test's criterion for growth inhibition) against Escherichia coli [1] was 716 µg/mL (≈ 1550 µM); in the experiment on Bacillus subtilis it was 179 µg/mL (≈ 387 µM); against Penicillium chrysogenum it was 1430 µg/mL (≈ 3100 µM); in the experiment on Candida albicans (ATCC 10231, 48 h), 358 µg/mL (≈ 774 µM); against Escherichia coli [2] it was 358 µg/mL (≈ 774 µM); with Aspergillus fumigatus, 89 µg/mL (≈ 192 µM). Besides, the MIC is 22 µg/mL (≈ 47.6 µM) with Staphylococcus aureus [3]; 22 µg/mL (≈ 47.6 µM) against Staphylococcus aureus [4]; 179 µg/mL (≈ 387 µM) against Escherichia coli [5]; 179 µg/mL (≈ 387 µM) with Staphylococcus aureus [6]; more than 5740 µg/mL against Acremonium chrysogenum; 179 µg/mL (≈ 387 µM) in the experiment on Proteus vulgaris. The MIC against Trueperella pyogenes came out at 179 µg/mL (≈ 387 µM); against Salmonella enterica, 179 µg/mL (≈ 387 µM); in the experiment with Aspergillus restrictus, 1430 µg/mL (≈ 3100 µM); in the experiment on Micrococcus luteus, 45 µg/mL (≈ 97.3 µM); with Bacillus cereus it was 89 µg/mL (≈ 192 µM); against Klebsiella pneumoniae [7] it was 45 µg/mL (≈ 97.3 µM). Moreover, the MIC against Klebsiella pneumoniae [8] amounted to 179 µg/mL (≈ 387 µM); in the experiment with Pseudomonas aeruginosa it was 358 µg/mL (≈ 774 µM); in the experiment with Saccharomyces cerevisiae (ATCC 9763, 48 h), 89 µg/mL (≈ 192 µM). Further, the MFC (commonly the smallest concentration meeting the test's criterion for killing the fungus) in the experiment with Penicillium chrysogenum was 2870 µg/mL (≈ 6200 µM); in the experiment with Candida albicans (ATCC 10231, 48 h) it was 1430 µg/mL (≈ 3100 µM); with Aspergillus fumigatus it was 358 µg/mL (≈ 774 µM); against Acremonium chrysogenum, more than 5740 µg/mL; in the experiment with Aspergillus restrictus, 2870 µg/mL (≈ 6200 µM); in the experiment on Saccharomyces cerevisiae (ATCC 9763, 48 h), 89 µg/mL (≈ 192 µM).

As to `CN(C)[C@@H]1C(O)=C(C(N)=O)C(=O)[C@@]2(O)C(O)=C3C(=O)c4c(O)cccc4[C@@](C)(O)[C@H]3C[C@@H]12` [TETRACYCLINE], the MIC amounted to 1.56 µg/mL (≈ 3.51 µM) against Escherichia coli [1]; 0.195 µg/mL (≈ 0.439 µM) in the experiment on Bacillus subtilis; 0.195 µg/mL (≈ 0.439 µM) against Escherichia coli [2]; 0.098 µg/mL (≈ 0.221 µM) in the experiment with Staphylococcus aureus [3]; 0.098 µg/mL (≈ 0.221 µM) against Staphylococcus aureus [4]; 1.56 µg/mL (≈ 3.51 µM) with Escherichia coli [5]. For the same molecule, the MIC against Staphylococcus aureus [6] was 0.098 µg/mL (≈ 0.221 µM); against Proteus vulgaris, 0.39 µg/mL (≈ 0.878 µM); in the experiment with Trueperella pyogenes, 1.56 µg/mL (≈ 3.51 µM); in the experiment with Salmonella enterica, 0.195 µg/mL (≈ 0.439 µM); in the experiment with Micrococcus luteus it was 0.39 µg/mL (≈ 0.878 µM); in the experiment on Bacillus cereus, 0.195 µg/mL (≈ 0.439 µM). In addition, the MIC came out at 0.39 µg/mL (≈ 0.878 µM) against Klebsiella pneumoniae [7], 0.39 µg/mL (≈ 0.878 µM) in the experiment on Klebsiella pneumoniae [8] and 1.56 µg/mL (≈ 3.51 µM) in the experiment on Pseudomonas aeruginosa.

As for NYSTATIN, the MIC was found to be 0.39 µg/mL against Penicillium chrysogenum; 6.25 µg/mL against Candida albicans; 0.195 µg/mL with Aspergillus fumigatus; 0.195 µg/mL against Acremonium chrysogenum; 0.781 µg/mL against Aspergillus restrictus; 12.5 µg/mL in the experiment on Saccharomyces cerevisiae.
